Measured values from patent US8729059B2, “Paramyxovirus family inhibitors and methods of use thereof” (priority 2007, dated 2014).

Key:
[1] = tested on: recombinant MV-Edm; test: virus yield reduction assay, MV-Edm; assay type: cell-based, measles virus; settings: 36 hours post-infection
[2] = tested on: cells
[3] = tested on: Vero cells; test: Trypan blue exclusion assay; settings: 30 hours
[4] = tested on: MV-Anc; test: compound specificity assay (BSA, higher virus inoculum); assay type: cell-based, measles virus
Method: Bovine serum albumin (BSA) was added to some samples at a final concentration of 10 mg/ml.

[5] = tested on: canine distemper virus (CDV); assay type: cell-based; settings: read-out: IC50 against CDV
[6] = tested on: human parainfluenzavirus type 2 (hPIV2); assay type: cell-based; settings: read-out: IC50 against hPIV2
[7] = tested on: MV-Anc; test: compound stability under physiological conditions; assay type: physicochemical, measles virus; settings: 15 μM, 37° C., pre-incubation for 24 hours
Method: To assess compound stability under physiological conditions, inhibitor compound 16677 was dissolved in growth medium (15 μM final concentration) and incubated at 37° C. and physiological pH for different time intervals (24 hours longest). Control samples contained equal amounts of DMSO and were likewise incubated for 24 hours. Subsequent to pre-incubation, MV was added to the compound aliquots and the mixtures transferred to 4×10^5 target cells seeded in a 6-well plate format (resulting MOI=0.1 pfu/cell). Thirty-six hours post-infection, cell-associated viral particles were harvested and virus titers determined by TCID50 titration.

[8] = tested on: MV; test: dissociation assay (dialysis); assay type: cell-based, measles virus; settings: 15 μM, dialysis against PBS
Method: Viral particles (4×10^4 pfu, equaling an MOI=[…]) were mixed with compound 16677 (final concentration 15 μM) dissolved in phosphate buffered saline (PBS). After 10-minute incubation at 37° C. to allow compound binding, samples were either subjected to dialysis against PBS (molecular weight cut off=75 kDa, dilution factor 100,000×, 4° C., 10 hours) or incubated for 10 hours at 4° C. without dialysis. Control samples were treated with DMSO-only and subjected to dialysis. All samples were then transferred to 4×10^5 target cells seeded in a 6-well plate, cell-associated viral particles harvested 36 hours post-infection and viral titers determined by TCID50 titration.

[9] = tested on: panel of primary MV isolates; test: virus yield dose-response, primary MV isolates; assay type: cell-based, measles virus
Method: For assessment of clinical MV isolates, compound was added in 3-fold dilutions (37.5 μM highest). Thirty-six hours post-infection, cell-associated viral particles were harvested and titered as described above.

[10] = tested on: MV; test: virus entry assay (pH 3.0 wash); assay type: cell-based, measles virus; settings: 10 μM, compared to DMSO-treated cells
Method: For entry experiments, viral particles (MOI=0.5) were absorbed to 4×10^5 target cells in a 6-well plate format at 4° C. in the presence of 10 μM compound 16677 or equal amounts of DMSO for one hour. Cells were then shifted to 37° C. for 30 minutes, followed by inactivation of adsorbed, extracellular virions by a 2-minute acid treatment (40 mM sodium citrate, 10 mM KCl, 135 mM NaCl, pH 3.0) at 25° C. as previously described (37,39,49). Subsequent incubation for 30 hours at 37° C. in the presence or absence of 10 μM compound 16677 as specified was followed by determination of cell-associated virus titers by TCID50 titration.

[11] = tested on: MV; test: time of compound addition assay; assay type: cell-based, measles virus; settings: 15 μM added 12 hours post-infection, harvest 20 hours post-infection
Method: Cells (3×10^5/well in a 12-well plate format) were infected with MV at an MOI=[…] and compounds compound 16677 (final concentration 15 μM) or AS-48 (final concentration 75 μM) added at the indicated time points. Control cells were infected in the presence of equal amounts of DMSO. Twenty hours post-infection, when virus-induced cytopathicity exceeded 90%, cell-associated viral particles were harvested and subjected to TCID50 titration.

[12] = molecular target: MV polymerase complex (Measles virus, UniProt P12576); assay type: cell-based
Sequence of MV polymerase complex (P03422 whole entry): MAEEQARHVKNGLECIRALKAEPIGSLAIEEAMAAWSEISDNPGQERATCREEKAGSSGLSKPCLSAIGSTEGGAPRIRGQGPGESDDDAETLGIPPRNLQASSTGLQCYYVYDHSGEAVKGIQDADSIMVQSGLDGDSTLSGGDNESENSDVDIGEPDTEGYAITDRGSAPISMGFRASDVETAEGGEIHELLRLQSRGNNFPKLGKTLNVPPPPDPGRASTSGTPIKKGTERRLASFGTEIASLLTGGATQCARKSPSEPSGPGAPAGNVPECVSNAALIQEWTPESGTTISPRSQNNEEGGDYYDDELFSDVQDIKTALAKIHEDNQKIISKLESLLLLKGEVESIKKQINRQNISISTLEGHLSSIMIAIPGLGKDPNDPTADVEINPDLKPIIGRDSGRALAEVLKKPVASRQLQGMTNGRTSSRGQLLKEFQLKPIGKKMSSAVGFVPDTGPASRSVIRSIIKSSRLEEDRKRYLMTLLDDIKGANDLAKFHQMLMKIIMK
Sequence of MV polymerase complex (P12576 whole entry): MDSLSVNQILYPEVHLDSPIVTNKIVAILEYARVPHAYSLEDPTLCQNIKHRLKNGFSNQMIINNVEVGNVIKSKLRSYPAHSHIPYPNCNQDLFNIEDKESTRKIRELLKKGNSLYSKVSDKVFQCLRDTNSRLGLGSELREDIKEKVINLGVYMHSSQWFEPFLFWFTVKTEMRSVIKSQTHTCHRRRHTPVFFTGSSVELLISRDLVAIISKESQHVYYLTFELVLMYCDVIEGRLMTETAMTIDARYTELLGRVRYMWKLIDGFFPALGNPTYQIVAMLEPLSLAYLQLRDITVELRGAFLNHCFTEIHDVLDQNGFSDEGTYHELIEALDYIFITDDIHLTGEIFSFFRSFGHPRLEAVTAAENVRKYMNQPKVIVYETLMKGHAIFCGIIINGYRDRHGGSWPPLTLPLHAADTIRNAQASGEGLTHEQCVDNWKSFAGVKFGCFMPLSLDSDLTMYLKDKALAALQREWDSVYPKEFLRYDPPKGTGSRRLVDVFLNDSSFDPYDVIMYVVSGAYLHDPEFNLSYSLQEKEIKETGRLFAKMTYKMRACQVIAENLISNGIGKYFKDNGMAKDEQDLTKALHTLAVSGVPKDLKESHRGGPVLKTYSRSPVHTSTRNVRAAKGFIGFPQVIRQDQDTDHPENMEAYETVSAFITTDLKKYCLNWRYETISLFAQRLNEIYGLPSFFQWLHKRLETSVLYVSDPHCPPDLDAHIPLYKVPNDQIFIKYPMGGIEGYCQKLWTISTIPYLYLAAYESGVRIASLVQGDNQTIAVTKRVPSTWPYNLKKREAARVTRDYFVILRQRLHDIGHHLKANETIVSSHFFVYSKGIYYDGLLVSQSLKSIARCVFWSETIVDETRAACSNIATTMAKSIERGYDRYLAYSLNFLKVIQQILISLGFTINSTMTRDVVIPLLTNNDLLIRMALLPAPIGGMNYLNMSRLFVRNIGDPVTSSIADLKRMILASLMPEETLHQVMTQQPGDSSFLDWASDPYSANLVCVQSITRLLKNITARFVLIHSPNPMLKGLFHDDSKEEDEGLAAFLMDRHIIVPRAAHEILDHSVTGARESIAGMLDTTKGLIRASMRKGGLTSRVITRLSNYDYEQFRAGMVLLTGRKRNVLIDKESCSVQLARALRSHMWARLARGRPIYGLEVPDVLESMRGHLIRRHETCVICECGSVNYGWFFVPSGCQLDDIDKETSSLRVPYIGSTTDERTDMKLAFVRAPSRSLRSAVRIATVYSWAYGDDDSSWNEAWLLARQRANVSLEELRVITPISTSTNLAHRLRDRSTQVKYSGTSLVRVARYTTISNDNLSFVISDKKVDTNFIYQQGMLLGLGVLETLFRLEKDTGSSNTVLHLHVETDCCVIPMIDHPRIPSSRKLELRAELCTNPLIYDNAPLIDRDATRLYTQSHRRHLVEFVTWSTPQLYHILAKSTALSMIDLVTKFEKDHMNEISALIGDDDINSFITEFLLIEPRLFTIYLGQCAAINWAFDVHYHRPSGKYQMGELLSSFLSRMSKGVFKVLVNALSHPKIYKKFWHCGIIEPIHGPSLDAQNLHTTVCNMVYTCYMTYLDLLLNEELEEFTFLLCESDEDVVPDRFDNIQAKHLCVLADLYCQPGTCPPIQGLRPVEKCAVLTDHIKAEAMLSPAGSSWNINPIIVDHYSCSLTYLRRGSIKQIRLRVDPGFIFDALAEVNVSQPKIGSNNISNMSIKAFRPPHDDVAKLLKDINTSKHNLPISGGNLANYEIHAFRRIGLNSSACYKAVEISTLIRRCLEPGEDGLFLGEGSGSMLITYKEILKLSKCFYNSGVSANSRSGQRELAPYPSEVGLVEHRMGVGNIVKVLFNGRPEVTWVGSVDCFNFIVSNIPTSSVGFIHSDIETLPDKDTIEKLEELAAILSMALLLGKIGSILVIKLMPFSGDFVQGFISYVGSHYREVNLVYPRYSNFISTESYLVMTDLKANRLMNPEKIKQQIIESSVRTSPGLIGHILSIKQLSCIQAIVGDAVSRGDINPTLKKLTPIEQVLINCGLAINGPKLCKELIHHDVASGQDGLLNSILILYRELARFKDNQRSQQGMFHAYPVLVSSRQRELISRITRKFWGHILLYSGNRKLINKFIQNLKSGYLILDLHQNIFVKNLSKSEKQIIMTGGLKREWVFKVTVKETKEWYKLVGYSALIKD

[13] = molecular target: Nipah virus polymerase (Nipah virus, UniProt Q997F0); assay type: cell-based
Sequence of Nipah virus polymerase (Q997F0 whole entry, looked up): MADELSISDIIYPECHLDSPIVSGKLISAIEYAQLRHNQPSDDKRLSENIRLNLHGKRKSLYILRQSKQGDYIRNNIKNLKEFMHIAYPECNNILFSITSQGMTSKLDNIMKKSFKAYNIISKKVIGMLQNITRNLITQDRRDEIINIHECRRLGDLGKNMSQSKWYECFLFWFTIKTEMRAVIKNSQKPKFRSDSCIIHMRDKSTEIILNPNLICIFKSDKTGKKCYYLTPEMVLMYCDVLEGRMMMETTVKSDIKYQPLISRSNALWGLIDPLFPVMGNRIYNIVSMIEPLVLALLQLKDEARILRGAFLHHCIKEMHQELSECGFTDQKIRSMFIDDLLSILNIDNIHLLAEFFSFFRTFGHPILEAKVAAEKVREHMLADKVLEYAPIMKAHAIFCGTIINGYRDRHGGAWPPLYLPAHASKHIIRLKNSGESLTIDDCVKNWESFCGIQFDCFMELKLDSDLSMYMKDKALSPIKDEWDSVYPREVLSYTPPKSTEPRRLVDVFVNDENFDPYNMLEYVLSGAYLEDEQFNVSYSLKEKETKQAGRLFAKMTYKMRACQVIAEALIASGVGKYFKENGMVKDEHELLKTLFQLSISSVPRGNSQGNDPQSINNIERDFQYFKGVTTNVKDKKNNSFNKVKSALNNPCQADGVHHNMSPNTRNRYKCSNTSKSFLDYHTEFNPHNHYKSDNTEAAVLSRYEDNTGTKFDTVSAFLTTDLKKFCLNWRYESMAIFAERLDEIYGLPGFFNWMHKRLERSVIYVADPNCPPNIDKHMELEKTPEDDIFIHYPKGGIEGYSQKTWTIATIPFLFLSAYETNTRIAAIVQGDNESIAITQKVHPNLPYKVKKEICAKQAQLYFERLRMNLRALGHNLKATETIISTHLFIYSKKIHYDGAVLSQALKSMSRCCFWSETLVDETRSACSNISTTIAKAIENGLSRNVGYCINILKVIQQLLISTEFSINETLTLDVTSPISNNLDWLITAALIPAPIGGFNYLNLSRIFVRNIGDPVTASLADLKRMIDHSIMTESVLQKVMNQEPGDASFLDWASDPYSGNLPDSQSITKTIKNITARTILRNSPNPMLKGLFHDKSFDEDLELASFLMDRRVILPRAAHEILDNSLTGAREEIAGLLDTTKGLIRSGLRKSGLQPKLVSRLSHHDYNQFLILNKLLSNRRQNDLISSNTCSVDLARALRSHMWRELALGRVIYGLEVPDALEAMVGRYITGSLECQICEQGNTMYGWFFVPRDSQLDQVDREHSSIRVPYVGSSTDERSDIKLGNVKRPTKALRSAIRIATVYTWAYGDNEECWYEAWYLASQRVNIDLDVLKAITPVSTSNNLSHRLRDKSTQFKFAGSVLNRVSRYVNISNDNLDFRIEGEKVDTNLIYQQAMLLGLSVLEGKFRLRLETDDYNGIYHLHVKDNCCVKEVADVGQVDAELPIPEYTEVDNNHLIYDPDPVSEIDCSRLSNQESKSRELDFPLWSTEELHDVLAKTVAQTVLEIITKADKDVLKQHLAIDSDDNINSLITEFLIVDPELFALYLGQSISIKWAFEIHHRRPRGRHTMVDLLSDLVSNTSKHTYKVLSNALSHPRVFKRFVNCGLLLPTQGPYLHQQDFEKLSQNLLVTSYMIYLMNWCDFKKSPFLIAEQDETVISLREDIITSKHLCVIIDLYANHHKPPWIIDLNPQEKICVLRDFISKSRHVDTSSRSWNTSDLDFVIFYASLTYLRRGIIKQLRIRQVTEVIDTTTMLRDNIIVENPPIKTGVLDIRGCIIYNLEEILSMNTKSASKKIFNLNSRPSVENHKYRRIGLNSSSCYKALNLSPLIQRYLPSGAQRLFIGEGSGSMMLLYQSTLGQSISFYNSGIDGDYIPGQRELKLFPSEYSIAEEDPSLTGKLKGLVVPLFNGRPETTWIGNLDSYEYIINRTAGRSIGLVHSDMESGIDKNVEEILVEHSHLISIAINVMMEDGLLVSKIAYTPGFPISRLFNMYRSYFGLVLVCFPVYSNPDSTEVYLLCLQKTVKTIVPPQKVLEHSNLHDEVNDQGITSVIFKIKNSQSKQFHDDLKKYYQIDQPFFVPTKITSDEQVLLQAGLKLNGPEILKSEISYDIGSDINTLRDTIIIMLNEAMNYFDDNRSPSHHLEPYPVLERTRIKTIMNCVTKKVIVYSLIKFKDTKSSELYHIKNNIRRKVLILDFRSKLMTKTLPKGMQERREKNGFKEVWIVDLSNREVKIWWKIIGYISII

[14] = molecular target: T7 polymerase (Escherichia phage T7, UniProt P00573); test: in vitro protein transcription/translation; assay type: biochemical; settings: 50 μM compound vs untreated
Method: Rabbit reticulocyte lysates were mixed with 0.5 μg plasmid DNA encoding MV F under the control of the T7 promoter (pT7-MV F), 20 μCi [^35S]-methionine, and compound 16677 (final concentration 50 μM) or equal volumes of DMSO. Samples were incubated at 30° C. for 90 min, mixed with urea buffer (200 mM Tris, pH 6.8; 8 M urea; 5% SDS; 0.1 mM EDTA; 0.03% bromphenolblue; 1.5% dithiothreitol), and fractionated on 12% polyacrylamide gels. Dried gels were exposed to Kodak XAR films.

## Cc1ccc2nsnc2c1S(=O)(=O)Nc1ccc(Cl)cc1 [compound 99920]
[1]
  IC50: 1.3 µM
[2]
  CC50: 100 µM

## O=C(NC(=O)N(c1ccc(Cl)cc1)S(=O)(=O)c1ccccc1)Nc1ccccc1Cl [compound 15960]
[1]
  IC50: 3.4 µM
[2]
  CC50: 120 µM

## Cc1ccc2[nH]c(=O)c(CNS(=O)(=O)c3ccccc3)c(-c3ccccc3)c2c1 [compound 68290]
[1]
  IC50: 7.7 µM
[2]
  CC50: > 150 µM
[3]; trypan-blue exclusion
  concentration giving 50% reduction of the number of live cells: approximately 75 μM

## Cn1nc(C(F)(F)F)cc1C(=O)Nc1ccc(S(=O)(=O)N2CCCC2)cc1 [compound 16677, 1-methyl-3-(trifluoromethyl)-N-[4-(pyrrolidinylsulfonyl)-phenyl]-1H-pyrazole-5-carboxamide]
[1]
  IC50: ~0.24 µM
[4]
  change of IC50 with 10 mg/ml BSA or five-fold higher virus inoculum: no significant differences were observed
[5]
  IC50: 28 µM
[6]
  IC50: > 75 µM
[7]
  antiviral activity after pre-incubation in cell culture medium: no loss in antiviral activity
[8]
  inhibitory activity after dialysis prior to infection (reversibility): completely ablated by dialysis
[9]
  inhibition of MV-Ibd (genotype B3, resistant to MV entry inhibitors): efficiently inhibited
[10]
  effect of pH 3.0 wash on virus yields after absorption in presence of compound: only slightly affected
[11]
  reduction in virus yields: approximately 99.9%
[12]
  CAT expression in MV minireplicon assay: strong dose-dependent inhibition of CAT expression
  IC50 in minigenome assay relative to IC50 against MV isolates: about 25 times
[13]
  effect on Nipah virus minireplicon: no effect
[14]
  F protein produced in cell-free transcription/translation: Equal amounts of F protein were detected
[2]
  CC50: > 150 µM
[3]; compound concentration 500 μM
  number of live cells, of solvent-treated controls: approximately 80%
